{"source": "the supplement of paper PMC10307832", "test_in_all_cases": "relative viability (nuclei count vs DMSO), 5 days (fraction); higher = more cells survive", "key": {"[1]": {"compound": "NCC(=O)Nc1ccc(-n2nc(C(F)(F)F)cc2-c2ccc3c(ccc4ccccc43)c2)cc1 + Nc1nc2[nH]cc(CCc3ccc(C(=O)N[C@@H](CCC(=O)O)C(=O)O)cc3)c2c(=O)[nH]1 [Pemetrexed] (partner 0.2 µM)", "outline": "(§1)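 Relative viability divides the nuclei count in treated wells by that in vehicle wells. Lung cancer cell lines were seeded in 1536-well plates, dosed by pin tool the next day, and fixed and stained after 5 days in one step with final 0.05% Triton X-100, 1% formaldehyde and 1 ug/ml Hoechst. Dosing was a single drug or a fixed anchor-drug dose plus five library-drug doses (not always all listed) in √10 steps, and values are medians of duplicate plates imaged at 4×.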"}, "[2]": {"compound": "NCC(=O)Nc1ccc(-n2nc(C(F)(F)F)cc2-c2ccc3c(ccc4ccccc43)c2)cc1 + CCNC(=O)c1noc(-c2cc(C(C)C)c(O)cc2O)c1-c1ccc(CN2CCOCC2)cc1 [Luminespib] (partner 0.01 µM)", "outline": "as §1"}, "[3]": {"compound": "C1CSC2=C(C(=O)N1)SC3=C2C=C(C=C3)O [kb NB 142-70] + N=C(N)NC(=N)NCCc1ccccc1 [Phenformin] (partner 250 µM)", "outline": "as §1"}, "kb NB 142-70 + OSI-027": {"compound": "C1CSC2=C(C(=O)N1)SC3=C2C=C(C=C3)O [kb NB 142-70] + COc1cccc2cc(-c3nc([C@H]4CC[C@H](C(=O)O)CC4)n4ncnc(N)c34)[nH]c12 [OSI-027] (partner 0.5 µM)", "outline": "as §1"}, "kb NB 142-70 + Olaparib": {"compound": "C1CSC2=C(C(=O)N1)SC3=C2C=C(C=C3)O [kb NB 142-70] + O=C(c1cc(Cc2n[nH]c(=O)c3ccccc23)ccc1F)N1CCN(C(=O)C2CC2)CC1 [Olaparib] (partner 8 µM)", "outline": "as §1"}}, "data": [{"cell line": "UMC-11", "values": [{"measurement": "relative viability", "setting": "[1]; first compound 0.02 µM", "result": 0.835}, {"measurement": "relative viability", "setting": "[1]; first compound 0.06325 µM", "result": 0.699}, {"measurement": "relative viability", "setting": "[1]; first compound 0.2 µM", "result": 0.905}, {"measurement": "relative viability", "setting": "[1]; first compound 0.6325 µM", "result": 0.853}, {"measurement": "relative viability", "setting": "[1]; first compound 2 µM", "result": 0.759}, {"measurement": "relative viability", "setting": "[2]; first compound 0.02 µM", "result": 1.06}, {"measurement": "relative viability", "setting": "[2]; first compound 0.06325 µM", "result": 0.965}, {"measurement": "relative viability", "setting": "[2]; first compound 0.2 µM", "result": 1.05}, {"measurement": "relative viability", "setting": "[2]; first compound 0.6325 µM", "result": 0.948}, {"measurement": "relative viability", "setting": "[2]; first compound 2 µM", "result": 0.948}, {"measurement": "relative viability", "setting": "[3]; first compound 0.1 µM", "result": 0.338}, {"measurement": "relative viability", "setting": "[3]; first compound 1 µM", "result": 0.307}, {"measurement": "relative viability", "setting": "[3]; first compound 3.162 µM", "result": 0.251}, {"measurement": "relative viability", "setting": "kb NB 142-70 + OSI-027; first compound 0.1 µM", "result": 0.463}, {"measurement": "relative viability", "setting": "kb NB 142-70 + OSI-027; first compound 1 µM", "result": 0.468}, {"measurement": "relative viability", "setting": "kb NB 142-70 + OSI-027; first compound 3.162 µM", "result": 0.298}, {"measurement": "relative viability", "setting": "kb NB 142-70 + Olaparib; first compound 0.1 µM", "result": 0.309}, {"measurement": "relative viability", "setting": "kb NB 142-70 + Olaparib; first compound 1 µM", "result": 0.315}, {"measurement": "relative viability", "setting": "kb NB 142-70 + Olaparib; first compound 3.162 µM", "result": 0.199}]}]}
